Assay results published in US20260055061A1, “HALOPHTHALIMIDE COMPOUNDS AND METHODS OF USE AGAINST TBI, INFLAMMATORY DISORDER, AUTOIMMUNE DISORDER, NEURODEGENERATIVE DISEASE OR VIRAL INFECTION” (The United States of America, as represented by the …, priority 2022, published 2026).
Entries after “also recorded” stand apart in the source; their conditions may differ.

How the values were obtained:
KC/GRO (CXCL1) = test: LPS model of inflammation in rats: KC/GRO (CXCL1); assay type: in vivo; conditions: 29.57 mg/kg i.p.; LPS rat model
Method: Four hours after LPS injection, animals were euthanized, and blood and brain tissue were collected and placed on wet ice. Plasma was quickly separated from blood by centrifuge at 10,000 g. 5 min, 4° C., and brain regions of cortex, hippocampus and the rest of brain were dissected into separate vials on wet ice, then stored at −80° C. Brain tissues were then sonicated in a TRIS based lysis buffer (Mesoscale Discovery) with 3× protease/phosphatase inhibitors (Halt™ Protease and Phosphatase Inhibitor Cocktail, Thermo Fisher Scientific), were then centrifuged at 10,000 g, 10 min, 4° C., and protein concentrations were measured by Bicinchoninic acid assay (BCA, Thermo Fisher Scientific). Rat plasma, cerebral cortical and hippocampal samples were then analyzed by multi-proinflammatory cytokines ELISA (V-PLEX Proinflammatory Panel 2 Rat Kit, Mesoscale Discovery), following the manufacturer's protocol. The processes and dosages of the experiment of drug treatment effects on LPS rat model was made on the basis of our previous studies.

CCI-induced TBI mice [1] = test: Controlled cortical impact (CCI) mouse model of TBI: beam walking test; assay type: in vivo; conditions: for beam walking test average transit time / beam walking test immobility time: 1 week after CCI
Method: (§1) In vivo model of TBI: Mice were anesthetized with 2.5% tribromoethanol (Avertin: 250 mg/kg; Sigma, St. Louis, MO, USA) and placed in a stereotaxic frame (Kopf Instruments, Tujunga, CA, USA). A 4 mm craniotomy was performed using sterile procedures; the craniotomy point was selected midway between the lambda and bregma sutures and laterally midway between the central suture and the temporalis muscle. The skull fragment was then carefully removed without disruption of the underlying dura. Prior to injury induction, the tip of the impactor was angled and kept perpendicular to the exposed cortical surface. The mouse CCI instrument consisted of an electromagnetic impactor, Impact One (Leica Biosystems Inc., Buffalo Grove, IL, USA) that allows independent alteration of injury severity by controlling contact velocity and the level of cortical deformation. In these experiments, the contact velocity was set at 5.0 m/sec, the dwell time was set at 0.2 s and the deformation depth was set at 2 mm to produce a moderate TBI. The injury site was allowed to dry prior to suturing the wound. During surgery and recovery, the body temperature of the animals was maintained at 36-37° C. by using a heating pad. […] Mice were randomized following CCI to treatment with either of two doses of TFBP (16.25 mg/kg and 32.5 mg/kg, i.p.) or saline, and were dosed at 1 and 24 hr after the injury.
Behavioral assessment for motor functions and coordination: Behavioral tests were performed 1 week and 2 weeks after injury, to assess changes in motor functions and coordination. All tests were performed during the animals' light phase; cages were transported to testing rooms at least 30 min prior to testing.
Beam Walking Test (BWT): A BWT was used to assess CCI-induced deficits in fine motor coordination. Mice have a preference for a darkened enclosed environment, as compared to an open illuminated one. Each animal was placed in darkened goal box for a 2 min habituation and then the trial began from the other (light) end of the beam. The beam was constructed with the following dimensions: 1.2 cm (width)×91 cm (length). The time taken for each animal to traverse the beam to reach the dark goal box and the immobility time spent between the moment when they were initially placed in the beam and when they started walking were documented. Five trials were recorded for each animal before CCI and at 1 and 2 weeks after CCI. The mean times to traverse the beam and the immobility times were calculated, and a plot was generated to evaluate treatment effects; these times were then used for statistical analysis.
In Vivo Model of TBI: TBI studies were conducted in 8-week-old male C57/BL6 mice (25-30 g; n=20), Jackson Laboratory, Bar Harbor, Maine USA. Mice were randomly assigned to four groups prior surgery, CMC+Sham, CMC+TBI, compound 30 (Low dose (LD), 14.78 mg/kg, prepared in 1% CMC in PBS)+TBI, compound 30 (High dose (HD), 29.57 mg/kg)+TBI, and evaluated the effects of compound 30 on TBI. Mice were assessed for gait function and motor coordination, balance function. Animals were subsequently evaluated for cellular changes using histological and immunohistochemistry staining.
Mice were anesthetized with 2.5% tribromoethanol (Avertin: 250 mg/kg; Sigma, St. Louis, MO, USA)) and placed in a mouse stereotaxic frame (Kopf Instruments, Tujunga, CA, USA) and fixed by ear bars and incisor bar. Under sterile procedures, the skin was retracted and a 5-mm square craniectomy was executed over right motor cortex at the posterior corner between the bregma and sagittal sutures. The skull was carefully removed by a drill to avoid damaging the dura underneath. The process of craniectomy proceeded without having the temporalis muscle impaired. The CCI device, Impact One (Leica Biosystems Inc., Buffalo Grove, IL, USA), consists of an electromagnetic impactor that allows alteration of injury severity by controlling contact velocity and the depth of cortical deformation independently. […]

[2] = Phase I metabolic stability in human liver microsomes (+/- NADPH, LC/MS); assay type: in vitro ADME
Method: The fluorinated compounds were evaluated under the more metabolically demanding conditions of a Phase-1-type microsomal analysis. […] For this initial comparison, the 7-fluoro-dithiopomaldiomide 30 was selected owing to its combination of favorable biological parameters and general ease of synthesis. The reactions on each sample were initiated by addition of human liver microsomes in the presence or absence of an NADPH regenerating system, and compound disappearance was monitored via LC/MS (FIG. 14, Table 10).

CCI-induced TBI mice [3] = test: CCI mouse model of TBI: brain lesion and lateral ventricle size (Giemsa); assay type: in vivo
Method: as §1
Tissue processing: Two weeks after injury, mice were deeply anesthetized with isoflurane and perfused transcardially with 30 ml phosphate buffered saline (PBS). After removal, the brain was post-fixed with 4% PFA overnight then transferred to a 30% sucrose solution in PBS. […]
Quantification of brain lesion and lateral ventricle size in TBI animals: One set of brain sections 2-weeks post-CCI were mounted on slides. […] Brain image regions were quantified using ImageJ 1.52q software (National Institutes of Health, Bethesda, MD). […] There were 9 brain sections from each mouse counted by blinded observers, with regions starting from bregma at 0.86 to −1.46 mm.
In Vivo Model of TBI: TBI studies were conducted in 8-week-old male C57/BL6 mice (25-30 g; n=20), Jackson Laboratory, Bar Harbor, Maine USA. Mice were randomly assigned to four groups prior surgery, CMC+Sham, CMC+TBI, compound 30 (Low dose (LD), 14.78 mg/kg, prepared in 1% CMC in PBS)+TBI, compound 30 (High dose (HD), 29.57 mg/kg)+TBI, and evaluated the effects of compound 30 on TBI. Mice were assessed for gait function and motor coordination, balance function. Animals were subsequently evaluated for cellular changes using histological and immunohistochemistry staining. […]

Row | Structure (SMILES) | KC/GRO in brain (KC/GRO (CXCL1)) | beam walking test average time (CCI-induced TBI mice [1]; high dose 29.57 mg/kg) | beam walking test, average time and contralateral foot falls (trend) (CCI-induced TBI mice [1]; treated groups 14.78, 29.57 mg/kg) | more material remaining compared to non-fluorinated partner ([2]; vs 4′, human liver microsomes) | more stability in the absolute sense ([2]; vs non-fluorinated 4′, human liver microsomes) [%] | stability in human liver microsomes (in words) ([2]; with and without NADPH) | lesion size (CCI-induced TBI mice [3]; low dose 14.78 mg/kg, 2 weeks post-TBI, vs CMC) | beam walking test average transit time (CCI-induced TBI mice [1]; higher dose 32.5 mg/kg i.p.) | beam walking test immobility time (CCI-induced TBI mice [1]; higher dose 32.5 mg/kg i.p.) | beam walking test average transit time (CCI-induced TBI mice [1]; lower dose 16.25 mg/kg i.p.) | beam walking test immobility time (CCI-induced TBI mice [1]; lower dose 16.25 mg/kg i.p.) | lateral ventricle size (CCI-induced TBI mice [3]; both doses, 2 weeks after TBI) | loss of cortical tissue (lesion volume) (CCI-induced TBI mice [3]; higher dose 32.5 mg/kg, 2 weeks after TBI) | loss of cortical tissue (lesion volume) (CCI-induced TBI mice [3]; lower dose 16.25 mg/kg, 2 weeks after TBI)
1 | Nc1ccc(F)c2c1C(=S)N(C1CCC(=S)NC1=O)C2=O (centres unmarked) [Compound 30, 4-amino-7-fluoro-2-(2-oxo-6-thioxopiperidin-3-yl)-3-thioxoisoindolin-1-one] | significantly reduce | reached significant different | clear reducing trends | roughly 16% | 7 | heightened resistance; also recorded: enhanced metabolic fortitude | significant reduction of the lesion size | – | – | – | – | – | – | –
2 | CC1(C)[C@@H]2CC[C@@]1(C)[C@@H](N1C(=O)c3c(F)c(F)c(F)c(F)c3C1=O)C2 [Compound 14, 4,5,6,7-Tetrafluoro-2-((1R,2S,4R)-1,7,7-trimethylbicyclo[2.2.1]heptan-2-yl) isoindoline-1,3-dione] | – | – | – | – | – | – | – | prevented the CCI-induced behavioral impairment | prevented the CCI-induced behavioral impairment | but not the average transit time deficit | effective in mitigating the immobility measure | did not reach statistical significance | failed to reach statistical significance | reduce loss of cortical tissue
